Tested on: cells
Experiment: cell cycle effect (G2/M)
Format: cell-based
Details: cell line not stated; "Experiments show that"

With `N=C(N)c1ccc(OCCCCCOc2ccc(C(=N)N)cc2)cc1` [pentamidine] the “effect on cell cycle” value was “maintain cells in the G2/M cell cycle”.

From patent US7875614B2, “Phthalazinones” (Merck Patent GmbH, priority 2005, dated 2011)
